In patent publication US20160237059A1, “HETEROCYCLIC SUBSTITUTED TRIFLUOROMETHYL PYRIMIDINONES AND THEIR USE” (BAYER PHARMA AKTIENGESELLSCHAFT, priority 2013, published 2016):

Legend:
human CCR2 = target: T1, human CCR2 (Homo sapiens, UniProt P41597); test: Functional Ca2+ release test (B-1); format: cell-based; details: Chem-1 cell line transfected with human CCR2; 50% inhibition of the MCP-1 effect, MCP-1 at EC50 (about 5 nM); in some cases means of several determinations
T1 construct: host or cells: Chem-1 cell line
T1 sequence (P41597 1-360 isoform P41597-2): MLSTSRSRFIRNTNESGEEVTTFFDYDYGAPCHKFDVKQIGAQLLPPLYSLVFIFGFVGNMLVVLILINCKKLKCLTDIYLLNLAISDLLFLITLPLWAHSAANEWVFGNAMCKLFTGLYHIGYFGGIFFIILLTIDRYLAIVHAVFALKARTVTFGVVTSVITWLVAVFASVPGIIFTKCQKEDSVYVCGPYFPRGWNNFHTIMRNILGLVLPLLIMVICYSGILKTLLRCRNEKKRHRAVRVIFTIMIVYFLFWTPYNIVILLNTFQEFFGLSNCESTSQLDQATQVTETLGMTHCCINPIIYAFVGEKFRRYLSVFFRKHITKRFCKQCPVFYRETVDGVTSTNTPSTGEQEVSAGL
Method in brief: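 Inhibition of MCP-1-evoked Ca2+ release was measured over 120 s by fluorescence imaging in Fluo-4-loaded, human CCR2-transfected Chem-1 cells. Compounds, tested in 10-point 1:3.16 series, were added 10 min before agonist at its EC50 (typically about 5 nM). IC50 values were obtained by 4-parameter logistic fitting.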

murine CCR2 = target: T2, murine CCR2 (Mus musculus, UniProt P51683); test: Functional β-arrestin recruiting test with murine MCP-1 (B-2b); format: cell-based; details: U2OS β-arrestin cell line transfected with murine CCR2; agonist murine MCP-1; in some cases means of several determinations
T2 construct: host or cells: U2OS β-arrestin cell line
T2 sequence (P51683 whole entry): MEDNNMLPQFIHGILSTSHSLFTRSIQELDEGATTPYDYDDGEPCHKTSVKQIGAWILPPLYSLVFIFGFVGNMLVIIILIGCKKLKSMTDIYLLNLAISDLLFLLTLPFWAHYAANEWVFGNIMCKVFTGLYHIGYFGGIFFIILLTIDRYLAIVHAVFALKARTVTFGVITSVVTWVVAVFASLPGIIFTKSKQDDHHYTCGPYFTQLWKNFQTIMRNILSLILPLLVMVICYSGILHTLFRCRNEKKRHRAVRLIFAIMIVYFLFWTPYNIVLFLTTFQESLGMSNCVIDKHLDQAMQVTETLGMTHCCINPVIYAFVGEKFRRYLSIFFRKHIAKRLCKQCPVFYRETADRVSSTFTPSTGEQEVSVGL
Method in brief: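 In a PathHunter β-galactosidase complementation assay, U2OS cells expressing murine CCR2 were preincubated 10 min with compound (10-point, 1:3.16 dilutions), then challenged with murine MCP-1 at its predetermined EC50 for 90 min at 37 °C. Luminescence was read after 60 min, and IC50 was fitted with a 4-parameter Hill function.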

| Structure (SMILES) | IC50 (human CCR2) [nM] | IC50 (murine CCR2) [nM] |
| --- | --- | --- |
| O=c1[nH]c(-c2ccc(Cl)cn2)nc(C(F)(F)F)c1Oc1ccc(Cl)c(C(F)(F)F)c1 [Example 195, 2-(5-chloropyridin-2-yl)-5-[4-chloro-3-(trifluoromethyl)phenoxy]-6-(trifluoromethyl)pyrimidin-4(3H)-one] | 1.1 | 157 |
| COc1cccnc1-c1nc(C(F)(F)F)c(Oc2ccc(C)c(Cl)c2)c(=O)[nH]1 [Example 196, 5-(3-chloro-4-methylphenoxy)-2-(3-methoxypyridin-2-yl)-6-(trifluoromethyl)pyrimidin-4(3H)-one] | 1.7 | 585 |
| Cc1cc(Oc2c(C(F)(F)F)nc(-c3ncccc3Cl)[nH]c2=O)ccc1Cl [Example 197, 5-(4-chloro-3-methylphenoxy)-2-(3-chloropyridin-2-yl)-6-(trifluoromethyl)pyrimidin-4(3H)-one] | 1.3 | 83 |
| CC(=O)Nc1ccc(-c2nc(C(F)(F)F)c(Oc3ccc(Cl)c(C(F)(F)F)c3)c(=O)[nH]2)nc1 [Example 199] | 0.6 | 110 |
| CN(C)c1ccc(-c2nc(C(F)(F)F)c(Oc3ccc(Cl)c(Cl)c3)c(=O)[nH]2)nn1 [Example 200] | 1.2 | 359 |
| CN(C)c1ccc(-c2nc(C(F)(F)F)c(Oc3ccc(Cl)c(C(F)(F)F)c3)c(=O)[nH]2)nn1 [Example 201] | 0.7 | 300 |
| CC(=O)Nc1ccc(-c2nc(C(F)(F)F)c(Oc3ccc(Cl)c(Cl)c3)c(=O)[nH]2)nc1 [Example 202] | 0.9 | 212 |
| O=c1[nH]c(-c2ncccc2OC(F)(F)F)nc(C(F)(F)F)c1Oc1ccc(Cl)c(Cl)c1 [Example 203] | 15 | 423 |
| O=c1[nH]c(-c2ncccc2OC(F)(F)F)nc(C(F)(F)F)c1Oc1ccc(Cl)c(C(F)(F)F)c1 [Example 204] | 9.2 | 282 |
| Cn1nc(-c2nc(C(F)(F)F)c(Oc3ccc(Cl)c(Cl)c3)c(=O)[nH]2)c2cccnc21 [Example 205] | 26 | 2490 |
| Cn1nc(-c2nc(C(F)(F)F)c(Oc3ccc(Cl)c(C(F)(F)F)c3)c(=O)[nH]2)c2cccnc21 [Example 206] | 12 | 1990 |
| COc1ccc2c(-c3nc(C(F)(F)F)c(Oc4ccc(Cl)c(C(F)(F)F)c4)c(=O)[nH]3)noc2c1 [Example 207] | 81 | 4490 |
| COc1ccc2c(-c3nc(C(F)(F)F)c(Oc4ccc(Cl)c(Cl)c4)c(=O)[nH]3)noc2c1 [Example 208] | 77 | 9580 |
| CC(=O)Nc1ccc2c(-c3nc(C(F)(F)F)c(Oc4ccc(Cl)c(C(F)(F)F)c4)c(=O)[nH]3)noc2c1 [Example 209] | 22 | 368 |
| O=c1[nH]c(-c2ncccc2Cl)nc(C(F)(F)F)c1Oc1ccc(Cl)cc1 [Example 210] | 3 | 349 |
| O=c1[nH]c(-c2ncccc2Cl)nc(C(F)(F)F)c1Cc1ccc(Cl)cc1 [Example 211] | 1.5 | 299 |
| Cc1cnc(-c2nc(C(F)(F)F)c(Oc3ccc(Cl)c(Cl)c3)c(=O)[nH]2)cc1C [Example 212] | 2.6 | 1700 |
| COc1c[nH]nc1-c1nc(C(F)(F)F)c(Oc2ccc(Cl)c(Cl)c2)c(=O)[nH]1 [Example 213] | 0.6 | 49 |
| COc1c[nH]nc1-c1nc(C(F)(F)F)c(Oc2ccc(Cl)c(C(F)(F)F)c2)c(=O)[nH]1 [Example 214, 5-[4-chloro-3-(trifluoromethyl)phenoxy)-2-(4-methoxy-1H-pyrazol-3-yl)-6-(trifluoromethyl)pyrimidin-4(3H)-one] | 0.6 | 8.5 |
| CCCc1cc(-c2nc(C(F)(F)F)c(Oc3ccc(Cl)c(Cl)c3)c(=O)[nH]2)no1 [Example 215] | 7.9 | 1150 |
| CCCc1cc(-c2nc(C(F)(F)F)c(Oc3ccc(Cl)c(C(F)(F)F)c3)c(=O)[nH]2)no1 [Example 216] | 4.6 | 1320 |

| Structure (SMILES) | IC50 (human CCR2) [nM] | IC50 (murine CCR2) [nM] |
| --- | --- | --- |
| CCc1cc(-c2nc(C(F)(F)F)c(Oc3ccc(Cl)c(C(F)(F)F)c3)c(=O)[nH]2)no1 [Example 217] | 1.8 | 874 |
| CCc1cc(-c2nc(C(F)(F)F)c(Oc3ccc(Cl)c(Cl)c3)c(=O)[nH]2)no1 [Example 218] | 3.9 | 584 |
| O=c1[nH]c(-c2cc(C3CC3)on2)nc(C(F)(F)F)c1Oc1ccc(Cl)c(Cl)c1 [Example 219] | 7.2 | 1040 |
| O=c1[nH]c(-c2cc(C3CC3)on2)nc(C(F)(F)F)c1Oc1ccc(Cl)c(C(F)(F)F)c1 [Example 220] | 3.5 | 775 |
| COCc1cc(-c2nc(C(F)(F)F)c(Oc3ccc(Cl)c(C(F)(F)F)c3)c(=O)[nH]2)no1 [Example 221] | 1.3 | 447 |
| COCc1cc(-c2nc(C(F)(F)F)c(Oc3ccc(Cl)c(Cl)c3)c(=O)[nH]2)no1 [Example 222] | 6.5 | 551 |
| Cc1cc(Oc2c(C(F)(F)F)nc(-c3cc[nH]n3)[nH]c2=O)ccc1Cl [Example 223] | 0.1 | 21 |
| Cc1ccc(Oc2c(C(F)(F)F)nc(-c3cc[nH]n3)[nH]c2=O)cc1Cl [Example 224] | 0.3 | 47 |
| Cn1ccc(-c2nc(C(F)(F)F)c(Oc3ccc(Cl)c(Cl)c3)c(=O)[nH]2)n1 [Example 225] | 0.3 | 150 |
| Cn1ccc(-c2nc(C(F)(F)F)c(Oc3ccc(Cl)c(C(F)(F)F)c3)c(=O)[nH]2)n1 [Example 226] | 0.5 | 87 |
| O=c1[nH]c(-c2nsc(Cl)c2Cl)nc(C(F)(F)F)c1Oc1ccc(Cl)c(Cl)c1 [Example 227] | 6.4 | 164 |
| O=c1[nH]c(-c2nsc(Cl)c2Cl)nc(C(F)(F)F)c1Oc1ccc(Cl)c(C(F)(F)F)c1 [Example 228] | 5.3 | 227 |
| O=c1[nH]c(-c2ccon2)nc(C(F)(F)F)c1Oc1ccc(Cl)c(Cl)c1 [Example 229] | 0.5 | 44 |
| O=c1[nH]c(-c2ccon2)nc(C(F)(F)F)c1Oc1ccc(Cl)c(C(F)(F)F)c1 [Example 230] | 0.4 | 44 |
| Cc1cc(-c2nc(C(F)(F)F)c(Oc3ccc(Cl)c(Cl)c3)c(=O)[nH]2)no1 [Example 231] | 0.1 | 249 |
| Cc1cc(-c2nc(C(F)(F)F)c(Oc3ccc(Cl)c(C(F)(F)F)c3)c(=O)[nH]2)no1 [Example 232] | 0.3 | 170 |
| O=c1[nH]c(-c2ccsn2)nc(C(F)(F)F)c1Oc1ccc(Cl)c(Cl)c1 [Example 233] | 0.2 | 43 |
| O=c1[nH]c(-c2ccsn2)nc(C(F)(F)F)c1Oc1ccc(Cl)c(C(F)(F)F)c1 [Example 234] | 0.3 | 27 |
| COc1nn(C)cc1-c1nc(C(F)(F)F)c(Oc2ccc(Cl)c(C(F)(F)F)c2)c(=O)[nH]1 [Example 235] | 20 | 796 |
| COc1nn(C)cc1-c1nc(C(F)(F)F)c(Oc2ccc(Cl)c(Cl)c2)c(=O)[nH]1 [Example 236] | 692 | 720 |
| COc1csnc1-c1nc(C(F)(F)F)c(Oc2ccc(Cl)c(Cl)c2)c(=O)[nH]1 [Example 237] | 1 | 80 |
